For test [1], the target named is T1, CDK7/CyclinH/MAT1 (Homo sapiens, UniProt P50613).
T1 construct: purchased Carna Biosciences
The experiment in a line: LanthaScreen Eu Kinase Binding Assay, CDK7. Particulars: tracer 236, read-out: CDK7 (activity range), Kd. The method, then:
(§1) This protocol describes how the LanthaScreen Eu Kinase Binding Assay was performed to determine dissociation constants (Kd) of compounds of general formula (I) and CDK/Cyclin complexes. The principle behind this assay is based upon the binding and displacement of an Alexa Fluor 647-labeled tracer, which binds to the active site of kinases. Binding of the tracer to the kinase is detected using a Eu-labeled antibody. Simultaneous binding of both the tracer and antibody to the kinase gives rise to a FRET-signal. Binding of an inhibitor to the kinase competes for binding with the tracer, resulting in a loss of FRET.
(§2) The compounds of general formula (I) summarized in Table 1 were diluted from a 10 mM DMSO stock solution 1:10 in a total volume of 15 μL DMSO. This compound predilution was then serial diluted 1:3 over 8 steps in DMSO and briefly spun down. Each compound solution was now diluted 1:33.33 in kinase buffer (HEPES: 20 mM, pH: 8.0; MgCl2: 10 mM; DTT: 1 mM; Brij-35: 0.01%), mixed thoroughly and spun down. For every sample, 5 μL of the diluted compound were mixed with 5 μL tracer working solution (e.g. 60 nM tracer 236 in kinase buffer for CDK2/Cyclin A) and 5 μL CDK/Cyclin/Anti-GST-AB-working solution (e.g. 15 nM CDK2/Cyclin A, 1:250 dilution of Anti-GST-AB in kinase buffer) in a well of a small volume 384 well plate (Corning Incorporated, Corning, N.Y., USA; order no. 3673). The tracer concentration was adjusted to its dissociation constant (Kd) for the CDK/Cyclin, which was 30 nM for CDK2/Cyclin A, CDK7/Cyclin H and CDK9/Cyclin T1, 20 nM for CDK8/Cyclin C, and 35 nM for CDK9/Cyclin K. For negative controls, in each well 5 μL of DMSO working solution (3% DMSO diluted in kinase buffer) was mixed with 5 μL Anti-GST-AB working solution (e.g. 1:250 dilution of Anti-GST-AB in kinase buffer for CDK2/Cyclin A) and 5 μL Tracer working solution (e.g. 60 nM Tracer 236 in kinase buffer for CDK2/Cyclin A). For positive controls, in each well 5 μL of DMSO working solution (3% DMSO diluted in kinase buffer) was mixed with 5 μL CDK/Cyclin/Anti-GST-AB-working solution: (e.g. 15 nM CDK2/Cyclin A, 1:250 dilution of Anti-GST-AB in kinase buffer) and 5 μL Tracer working solution (e.g. 60 nM Tracer 236 in kinase buffer for CDK2/Cyclin A). Positive and negative controls were calculated from at least 8 different sample wells. The 384 well plates were mixed in a Teleshaker plate mixer (Beckman Coulter, Brea, Calif., USA) at 2000 rpm for 40 sec, and incubated for 1 h at room temperature before reading. The FRET signal was measured at 340 nm excitation, 665 nm and 615 nm emission (for the kinase tracer and LanthaScreen Eu-AB, respectively) with an Envision spectrophotometer (Perkin Elmer, Waltham, Mass., USA) with 50 μs delay and 300 μs integration time. Kd values were determined from the sigmoidal dose response curves with the software Quattro Workflow (Quattro GmbH, Munich, Germany).
In general terms: In TR-FRET formats the signal depends on donor and acceptor labels being close together.

Test [2] concerns the target T2, CDK2/CyclinA (Homo sapiens, UniProt P24941).
T2 construct: purchased Proqinase
Nature of the test: LanthaScreen Eu Kinase Binding Assay, CDK2. To be noted: tracer 236, read-out: CDK2 (activity range), Kd. The method, then:
as §1, §2

Test [3] has as its target T2, CDK2/CyclinA. The experiment in a line: Lance Ultra KinaSelect Assay, CDK2. The test is classed as biochemical. To be noted: ULight MBP substrate, ATP 3 μM; read-out: CDK2 LANCE assay (activity range), IC50. On the procedure: This protocol describes how the Lance Ultra KinaSelect Assay was performed to determine half maximal inhibitory concentration (IC50) of compounds of general formula (I) and CDK/Cyclin complexes. The principle behind this enzymatic assay is based upon the phosphorylation of the ULight-Peptide Substrat. It is detected by using a specific EU-labeled anti-phospho peptide antibody. The binding of the Eu-labeled anti-phospho peptide antibody to the phosphorylated ULight labeled peptide gives rise to a FRET-signal. Binding of an inhibitor to the kinase prevents phosphorylation of the ULight-MBP Substrat, resulting in a loss of FRET.
The compounds of general formula (I) summarized in Table 5 were diluted from a 10 mM DMSO stock solution 1:10 in a total volume of 15 μL DMSO. This compound predilution was then serial diluted 1:3 over 8 steps in DMSO and briefly spun down. Each compound solution was now diluted 1:20 in Enzymatic Buffer (HEPES: 50 mM, pH: 7.5; MgCl2: 10 mM; EGTA: 1 mM; DTT: 2 mM; Tween-20: 0.01%), mixed thoroughly and spun down. For every sample, 2 μL of the diluted compound were mixed with 6 μL CDK/Cyclin/Substrat solution and 2 μL ATP solution in a well of a small volume 384 well plate (Corning Incorporated, Corning, N.Y., USA; order no. 3673). The CDK/Cyclin was diluted to the appropriate concentration (see Table 3) and the ATP concentration was adjusted to its […] for the CDK/Cyclin, which was 3 μM for CDK2/Cyclin A, 20 μM for CDK1/Cyclin B1, 25 μM for CDK7/Cyclin H and CDK9/Cyclin T1, 55 μM for CDK6/Cyclin D3, 90 μM for CDK4/Cyclin D1 and 125 μM for CDK9/Cyclin K. For negative controls, in each well 2 μL of DMSO solution (1% final DMSO assay concentration) was mixed with 6 μL substrate solution (50 nM ULight MBP final assay concentration) and 2 μL ATP solution (appropriate final concentration see Table 3). For positive controls, in each well 2 μL of DMSO solution (1% final DMSO assay concentration) was mixed with 6 μL CDK/Cyclin/Substrat (appropriate final concentration see Table 3) and 2 μL Tracer ATP solution (appropriate final concentration see Table 3). Positive and negative controls were calculated from at least 8 different sample wells. The 384 well plates were mixed in a Teleshaker plate mixer (Beckman Coulter, Brea, Calif., USA) at 2000 rpm for 40 sec, and incubated for 1 h at room temperature. Before reading, 10 μL the detection buffer (Lance Detection Buffer 1×; EDTA: […]; Eu-Anti-P-MBP: see Table 3) was added. The FRET signal was measured at 340 nm excitation, 665 nm and 615 nm emission (for the kinase tracer and LanthaScreen Eu-AB, respectively) with an Envision spectrophotometer (Perkin Elmer, Waltham, Mass., USA) with 50 μs delay and 300 μs integration time. IC50 values were determined from the sigmoidal dose response curves with the software Quattro Workflow (Quattro GmbH, Munich, Germany).

Structures are written as SMILES.

Data on eight compounds can be found in patent publication US9242937B2, “Pharmaceutically active disubstituted pyridine derivatives” (Bayer Intellectual Property GmbH, priority 2011, dated 2016).

As usually defined, the Kd is the constant that tells how readily two partners part at equilibrium. For orientation: IC50 means the point on the concentration scale where inhibition reaches its midpoint.

T1 sequence (P50613 whole entry): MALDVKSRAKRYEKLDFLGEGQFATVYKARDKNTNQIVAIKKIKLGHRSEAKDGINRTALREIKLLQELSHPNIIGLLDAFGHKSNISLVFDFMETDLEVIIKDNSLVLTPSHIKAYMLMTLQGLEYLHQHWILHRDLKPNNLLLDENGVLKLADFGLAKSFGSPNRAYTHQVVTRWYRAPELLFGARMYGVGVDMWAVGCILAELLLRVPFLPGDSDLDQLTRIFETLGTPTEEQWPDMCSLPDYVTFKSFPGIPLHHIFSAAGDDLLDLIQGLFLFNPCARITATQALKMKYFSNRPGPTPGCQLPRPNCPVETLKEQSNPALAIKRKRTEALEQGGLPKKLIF
T1 sequence (P51946 whole entry partner): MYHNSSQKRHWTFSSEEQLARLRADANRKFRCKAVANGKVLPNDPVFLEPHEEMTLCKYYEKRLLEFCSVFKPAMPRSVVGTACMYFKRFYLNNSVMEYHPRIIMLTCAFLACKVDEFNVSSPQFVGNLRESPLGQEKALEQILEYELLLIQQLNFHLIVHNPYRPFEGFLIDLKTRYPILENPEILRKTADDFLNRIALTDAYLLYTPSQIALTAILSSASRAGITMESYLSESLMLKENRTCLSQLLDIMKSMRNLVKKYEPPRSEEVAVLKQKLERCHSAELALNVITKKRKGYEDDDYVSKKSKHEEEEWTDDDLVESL
T1 sequence (P51948 whole entry partner): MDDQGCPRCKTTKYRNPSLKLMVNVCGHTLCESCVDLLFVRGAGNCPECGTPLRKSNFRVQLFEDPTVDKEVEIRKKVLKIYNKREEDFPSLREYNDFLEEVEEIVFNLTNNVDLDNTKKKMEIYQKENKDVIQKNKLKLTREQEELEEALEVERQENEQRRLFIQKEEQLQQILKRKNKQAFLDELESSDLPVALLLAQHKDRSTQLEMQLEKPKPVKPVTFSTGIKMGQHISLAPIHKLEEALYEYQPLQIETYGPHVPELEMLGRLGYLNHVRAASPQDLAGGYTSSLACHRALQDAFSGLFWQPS

As for `COc1ccccc1-c1ccnc(Nc2cccc(S(N)(=O)=O)c2)c1` [Compound D1, 3-[(4-(2-Methoxyphenyl)pyridin-2-yl)amino]benzenesulfonamide], the Kd in test [1] was more than 10000 nM; in test [2], less than 100 nM. In addition, in test [3], the IC50 fell in the range of 100 to 1000 nM.

For the compound `COc1ccccc1-c1ccnc(Nc2ccc(S(N)(=O)=O)cc2)c1` [Compound E1, 4-[(4-(2-Methoxyphenyl)pyridin-2-yl)amino]benzenesulfonamide], the results for the Kd in test [1] and in test [2] were more than 10000 nM and less than 100 nM, respectively. Also, the half-maximal inhibitory concentration (IC50) in test [3] is less than 100 nM.

As for `COc1ccccc1-c1ccnc(Nc2cccc(S(C)(=O)=O)c2)c1` [Compound F1, 4-(2-Methoxyphenyl)-N-(3-(methylsulfonyl)phenyl)pyridin-2-amine], the Kd in test [2] lay within 100 to 1000 nM.

In the case of `COc1cc(F)ccc1-c1ccnc(Nc2cccc(CS(N)(=O)=O)c2)c1` [Compound G1, [3-((4-(4-Fluoro-2-methoxyphenyl)pyridin-2-yl)amino)phenyl]-methanesulfonamide], the Kd in test [1] was more than 10000 nM; in test [2] it was 100 to 1000 nM. Also, the IC50 in test [3] fell in the range of 1000 to 10000 nM.

`COc1cc(F)ccc1-c1ccnc(Nc2cccc(CS(=O)(=O)N(C)C)c2)c1` [Compound G3, 1-[3-((4-(4-Fluoro-2-methoxyphenyl)pyridin-2-yl)amino)phenyl]-N,N-dimethylmethanesulfonamide]: the Kd in test [1] is more than 10000 nM; in test [2] it was 100 to 1000 nM. In test [3], the IC50 lay within 1000 to 10000 nM.

Turning to `COc1cc(F)ccc1-c1ccnc(Nc2cccc(NS(C)(=O)=O)c2)c1` [Compound J1, N-[3-((4-(4-Fluoro-2-methoxyphenyl)pyridin-2-yl)amino)phenyl]-methanesulfonamide], the figures for the Kd in test [1] and in test [2] were 1000 to 10000 nM and less than 100 nM, respectively. The IC50 in test [3] fell in the range of 100 to 1000 nM.

As to `COc1cc(F)ccc1-c1ccnc(Nc2cccc(NC(C)=O)c2)c1` [Compound J2, N-[3-((4-(4-Fluoro-2-methoxyphenyl)pyridin-2-yl)amino)phenyl]-acetamide], the Kd in test [1] was more than 10000 nM; in test [2] it was 100 to 1000 nM. The IC50 in test [3] lay within 100 to 1000 nM.

Consider `CCCNS(=O)(=O)Cc1cccc(Nc2cc(-c3ccc(F)cc3OC)ccn2)c1` [Compound K1, 1-[3-((4-(4-Fluoro-2-methoxyphenyl)pyridin-2-yl)amino)phenyl]-N-propylmethanesulfonamide], for which the Kd in test [1] was more than 10000 nM; in test [2], 100 to 1000 nM. Besides, in test [3], the 50% inhibitory concentration (IC50) lay within 1000 to 10000 nM.
